Assay results reported in paper PMC5835321 (Cancer research, 2017).

Target: T1, PPARG (PPAR-gamma) (Homo sapiens, UniProt P37231)
T1 sequence (P37231 231-505 limits assumed): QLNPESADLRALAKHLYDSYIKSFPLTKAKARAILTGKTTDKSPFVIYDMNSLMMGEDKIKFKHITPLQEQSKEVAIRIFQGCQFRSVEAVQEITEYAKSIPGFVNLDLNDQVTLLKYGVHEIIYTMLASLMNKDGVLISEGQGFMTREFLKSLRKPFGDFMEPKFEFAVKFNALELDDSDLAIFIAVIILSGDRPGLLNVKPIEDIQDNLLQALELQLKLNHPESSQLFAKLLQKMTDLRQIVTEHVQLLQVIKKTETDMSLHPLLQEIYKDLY

CN(CCOc1ccc(C[C@H](Nc2ccccc2C(=O)c2ccccc2)C(=O)O)cc1)c1ccccn1 [GW1929]
TR-FRET coactivator recruitment and corepressor release; full agonist: Full agonists, such as rosiglitazone, tesaglitazar, GW1929, and pioglitazone, enhanced interaction between PPARG and MED1 coactivator peptide
